pEC50: −log10 of the molar value.
System: genotype D HBV
Assay: HBV-DNA Antiviral Assay Using HepG2.117 Cells
Format: cell-based
Conditions: Hepatitis B virus, HepG2.117, 96 h, intracellular HBV DNA by qPCR, day 4
Protocol: The following assay procedure describes the HBV antiviral assay, using HepG2.117 cells, which carry a stably integrated genotype D HBV genome under the control of a Tet-off promoter, and intracellular HBV DNA quantification as endpoint. Cell viability is assessed in parallel by measuring the intracellular ATP content using ATPlite (Perkin Elmer).
On day 0, HepG2.117 cells (which are maintained in routine cell culture with doxycycline present in the medium at a final concentration of 1 μg/mL) were seeded in 96-well plates (white with clear bottom) at a density of 2.0×10^4 cells/well (0.1 mL/well) in medium without doxycycline to induce pgRNA transcription and subsequent formation of HBV particles. The cells were incubated at 37° C. and 5% CO2.
On day 1, medium was removed from each well, the test articles were diluted in culture medium without doxcycyline and 100 μL was added to cell culture wells (9 concentrations, 4-fold dilution). For each plate, 6 untreated (merely DMSO) wells were included. The final concentration of DMSO in the culture medium was 2%. Each plate was prepared in duplicate (one for HBV DNA extraction, one for ATPlite measurement). The cells were incubated at 37° C. and 5% CO2 for 3 days.
On day 4, cell viability was assessed using ATPlite and cell lysates were prepared for HBV DNA extraction and subsequent quantification by qPCR.
Medium was removed from each well and 100 μL of 0.33% NP-40 in H2O was added to each well. Plates were sealed, incubated at 4° C. for 5 mins, vortexed extensively and centrifuged briefly. Next, 35 μL of lysate was added to 65 μL QuickExtract DNA Extraction Solution (Epicentre) in a PCR plate for each well. PCR plate was incubated at 65° C. for 6 mins, 98° C. for 2 mins and finally cooled to 4° C. HBV DNA was then quantified by qPCR with HBV-specific primers and probes as specified in Table 4 using the Bio-Rad SSOAdvanced Universal Probes Supermix on a CFX96 machine (Bio-Rad). The PCR cycle program consisted of 95° C. for 3 mins, followed by 40 cycles at 95° C. for 10 sec and 60° C. for 30 sec.
A DNA standard was prepared by dilution of an IDT gBlock corresponding to the amplicon with concentrations ranging from 10^2 to 10^8 copies/input (i.e. per 4 μL) and used to generate a standard curve by plotting Cq values vs. HBV DNA standard concentration. The quantity of HBV DNA in each sample was determined by interpolating from the standard curve.
Cell viability was calculated as follows: % Cell viability=(luminescence value of test sample)/(average luminescence value of 2% DMSO control)×100%. HBV DNA inhibition was calculated as follows: 100−(HBV DNA copy number of test sample)/(average HBV DNA copy number of 2% DMSO control)×100%. No normalization to entecavir was required due to the excellent dynamic window of this assay. The CC50, EC50 and EC90 values were determined by dose-response curves fitted by GraphPad Prism using “log (agonist) vs. response—Variable slope”.

C=CC1([C@H]2COc3c(cn(C)c3C(=O)Nc3ccc(F)c(C#N)c3)S(=O)(=O)N2)CCS(=O)(=O)CC1 [Compound 43A]
pEC50: 7.00 to 8.00

C=CC[C@@](C)(O)[C@H]1COc2c(cn(C)c2C(=O)Nc2ccc(F)c(C#N)c2)S(=O)(=O)N1 [Compound 40B]
pEC50: 8.00 to 9.00

C=C[C@@](C)(O)[C@H]1COc2c(cn(C)c2C(=O)Nc2ccc(F)c(C(F)(F)F)c2)S(=O)(=O)N1 [Compound 29A]
pEC50: 7.00 to 8.00

C=C[C@@]1(C)COc2c(cn(C)c2C(=O)Nc2ccc(F)c(C#N)c2)S(=O)(=O)N1 [Compound 15B]
pEC50: 8.00 to 9.00

C=C[C@H]1COc2c(cn(C)c2C(=O)Nc2ccc(F)c(C(F)(F)F)c2)S(=O)(=O)N1 [Compound 24]
pEC50: 8.00 to 9.00

C=C[C@]1([C@@H](C)O)COc2c(cn(C)c2C(=O)Nc2ccc(F)c(C#N)c2)S(=O)(=O)N1 [Compound 38B]
pEC50: 7.00 to 8.00

C#C[C@](C)(O)[C@H]1COc2c(cn(C)c2C(=O)Nc2ccc(F)c(C#N)c2)S(=O)(=O)N1 [Compound 35A]
pEC50: 8.00 to 9.00

C=C[C@@]1([C@H](C)O)COc2c(cn(C)c2C(=O)Nc2ccc(F)c(C#N)c2)S(=O)(=O)N1 [Compound 38A]
pEC50: 7.00 to 8.00

C=C[C@H]1CCc2c(cn(C)c2C(=O)Nc2ccc(F)c(C#N)c2)S(=O)(=O)N1 [Compound 8]
pEC50: 8.00 to 9.00

C=C[C@](O)([C@@H]1COc2c(cn(C)c2C(=O)Nc2ccc(F)c(C#N)c2)S(=O)(=O)N1)C(F)(F)F [Compound 21]
pEC50: 7.00 to 8.00

C=CC(C)(C)[C@H]1COc2c(cn(C)c2C(=O)Nc2ccc(F)c(C#N)c2)S(=O)(=O)N1 [Compound 45A]
pEC50: 8.00 to 9.00

C=CC[C@@]1(C)COc2c(cn(C)c2C(=O)Nc2ccc(F)c(C#N)c2)S(=O)(=O)N1 [Compound 16B]
pEC50: 8.00 to 9.00

C=C[C@H](C)[C@@H]1COc2c(cn(C)c2C(=O)Nc2ccc(F)c(C#N)c2)S(=O)(=O)N1 [Compound 27B]
pEC50: 8.00 to 9.00

CC#C[C@H](O)[C@H]1COc2c(cn(C)c2C(=O)Nc2ccc(F)c(C(F)(F)F)c2)S(=O)(=O)N1 [Compound 22A]
pEC50: 7.00 to 8.00

C#C[C@@](C)(O)[C@H]1COc2c(cn(C)c2C(=O)Nc2ccc(F)c(C(F)(F)F)c2)S(=O)(=O)N1 [Compound 36B]
pEC50: 8.00 to 9.00

C=C[C@]1([C@H](C)O)COc2c(cn(C)c2C(=O)Nc2ccc(F)c(C#N)c2)S(=O)(=O)N1 [Compound 38C]
pEC50: 8.00 to 9.00

C=CC[C@H]1COc2c(cn(C)c2C(=O)Nc2ccc(F)c(C#N)c2)S(=O)(=O)N1 [Compound 47]
pEC50: 8.00 to 9.00

C=C[C@@]1([C@@H](C)O)COc2c(cn(C)c2C(=O)Nc2ccc(F)c(C#N)c2)S(=O)(=O)N1 [Compound 38D]
pEC50: 6.00 to 7.00

C=C[C@@]1(CO)COc2c(cn(C)c2C(=O)Nc2ccc(F)c(C(F)(F)F)c2)S(=O)(=O)N1 [Compound 31A]
pEC50: 8.00 to 9.00

C#C[C@H](O)[C@@]1(C)COc2c(cn(C)c2C(=O)Nc2ccc(F)c(C#N)c2)S(=O)(=O)N1 [Compound 42C]
pEC50: 8.00 to 9.00

C=C[C@H](O)[C@]1(C)COc2c(cn(C)c2C(=O)Nc2ccc(F)c(C#N)c2)S(=O)(=O)N1 [Compound 41A]
pEC50: 8.00 to 9.00

C#C[C@@](C)(O)[C@H]1CCc2c(cn(C)c2C(=O)Nc2ccc(F)c(C#N)c2)S(=O)(=O)N1 [Compound 12B]
pEC50: 7.00 to 8.00

C=C[C@H](O)[C@@]1(C)COc2c(cn(C)c2C(=O)Nc2ccc(F)c(C#N)c2)S(=O)(=O)N1 [Compound 41C]
pEC50: 7.00 to 8.00

C=C[C@]1(CO)CCc2c(cn(C)c2C(=O)Nc2ccc(F)c(C(F)(F)F)c2)S(=O)(=O)N1 [Compound 9B]
pEC50: 7.00 to 8.00

C=C[C@@H](C)[C@H]1COc2c(cn(C)c2C(=O)Nc2ccc(F)c(C#N)c2)S(=O)(=O)N1 [Compound 27A]
pEC50: 7.00 to 8.00

C=C[C@]1(C)COc2c(cn(C)c2C(=O)Nc2ccc(F)c(C(F)(F)F)c2)S(=O)(=O)N1 [Compound 23B]
pEC50: 8.00 to 9.00

C=CC[C@H](O)[C@H]1COc2c(cn(C)c2C(=O)Nc2ccc(F)c(C#N)c2)S(=O)(=O)N1 [Compound 17A]
pEC50: 8.00 to 9.00

C=C[C@]1(CO)CCc2c(cn(C)c2C(=O)Nc2ccc(F)c(C#N)c2)S(=O)(=O)N1 [Compound 10B]
pEC50: 7.00 to 8.00

CC#CC[C@H]1COc2c(cn(C)c2C(=O)Nc2ccc(F)c(C#N)c2)S(=O)(=O)N1 [Compound 46]
pEC50: 8.00 to 9.00

C=C[C@@H](O)[C@H]1COc2c(cn(C)c2C(=O)Nc2ccc(F)c(C#N)c2)S(=O)(=O)N1 [Compound 14B]
pEC50: 8.00 to 9.00

C#C[C@H](O)[C@]1(C)COc2c(cn(C)c2C(=O)Nc2ccc(F)c(C#N)c2)S(=O)(=O)N1 [Compound 42A]
pEC50: 8.00 to 9.00

Cn1cc2c(c1C(=O)Nc1ccc(F)c(C#N)c1)OC[C@H](CC=C(F)F)NS2(=O)=O [Compound 13]
pEC50: 8.00 to 9.00

CC#C[C@@H](O)[C@H]1COc2c(cn(C)c2C(=O)Nc2ccc(F)c(C(F)(F)F)c2)S(=O)(=O)N1 [Compound 22B]
pEC50: 8.00 to 9.00

C#C[C@@H](O)[C@@]1(C)COc2c(cn(C)c2C(=O)Nc2ccc(F)c(C#N)c2)S(=O)(=O)N1 [Compound 42B]
pEC50: 8.00 to 9.00

C=C[C@]1(CO)COc2c(cn(C)c2C(=O)Nc2ccc(F)c(C(F)(F)F)c2)S(=O)(=O)N1 [Compound 31B]
pEC50: 8.00 to 9.00

C=CC(C)(C)[C@@H]1COc2c(cn(C)c2C(=O)Nc2ccc(F)c(C#N)c2)S(=O)(=O)N1 [Compound 45B]
pEC50: 8.00 to 9.00

C=C[C@@]1(C)COc2c(cn(C)c2C(=O)Nc2ccc(F)c(C(F)(F)F)c2)S(=O)(=O)N1 [Compound 23A]
pEC50: 8.00 to 9.00

C=CC[C@@H](O)[C@@H]1COc2c(cn(C)c2C(=O)Nc2ccc(F)c(C#N)c2)S(=O)(=O)N1 [Compound 25A]
pEC50: 7.00 to 8.00

C=C[C@@H](O)[C@@]1(C)COc2c(cn(C)c2C(=O)Nc2ccc(F)c(C#N)c2)S(=O)(=O)N1 [Compound 41B]
pEC50: 8.00 to 9.00

C=C[C@@](C)(O)[C@H]1COc2c(cn(C)c2C(=O)Nc2ccc(F)c(C#N)c2)S(=O)(=O)N1 [Compound 28A]
pEC50: 8.00 to 9.00

C=C(C)[C@H]1COc2c(cn(C)c2C(=O)Nc2ccc(F)c(C(F)(F)F)c2)S(=O)(=O)N1 [Compound 33]
pEC50: 8.00 to 9.00

C=C[C@](C)(O)[C@H]1CCc2c(cn(C)c2C(=O)Nc2ccc(F)c(C#N)c2)S(=O)(=O)N1 [Compound 11A]
pEC50: 8.00 to 9.00

C#C[C@@H](O)[C@]1(C)COc2c(cn(C)c2C(=O)Nc2ccc(F)c(C#N)c2)S(=O)(=O)N1 [Compound 42D]
pEC50: 7.00 to 8.00

C=C[C@@]1(CO)COc2c(cn(C)c2C(=O)Nc2ccc(F)c(C#N)c2)S(=O)(=O)N1 [Compound 30A]
pEC50: 8.00 to 9.00

C=CC[C@](C)(O)[C@H]1COc2c(cn(C)c2C(=O)Nc2ccc(F)c(C#N)c2)S(=O)(=O)N1 [Compound 40A]
pEC50: 8.00 to 9.00

C=CC1([C@@H]2COc3c(cn(C)c3C(=O)Nc3ccc(F)c(C#N)c3)S(=O)(=O)N2)CCS(=O)(=O)CC1 [Compound 43B]
pEC50: 7.00 to 8.00

C=C[C@@H](O)[C@]1(C)COc2c(cn(C)c2C(=O)Nc2ccc(F)c(C#N)c2)S(=O)(=O)N1 [Compound 41D]
pEC50: 7.00 to 8.00

C=CC[C@H](O)[C@]1(C)COc2c(cn(C)c2C(=O)Nc2ccc(F)c(C#N)c2)S(=O)(=O)N1 [Compound 44A]
pEC50: 7.00 to 8.00

C=C[C@H](C)[C@H]1COc2c(cn(C)c2C(=O)Nc2ccc(F)c(C#N)c2)S(=O)(=O)N1 [Compound 27C]
pEC50: 7.00 to 8.00

C#C[C@H](O)[C@H]1COc2c(cn(C)c2C(=O)Nc2ccc(F)c(C#N)c2)S(=O)(=O)N1 [Compound 18]
pEC50: 8.00 to 9.00

C=C[C@@H](C)[C@@H]1COc2c(cn(C)c2C(=O)Nc2ccc(F)c(C#N)c2)S(=O)(=O)N1 [Compound 27D]
pEC50: > 9.00

C=C[C@@]1(CO)CCc2c(cn(C)c2C(=O)Nc2ccc(F)c(C#N)c2)S(=O)(=O)N1 [Compound 10A]
pEC50: 7.00 to 8.00

C=C(C)[C@H]1COc2c(cn(C)c2C(=O)Nc2ccc(F)c(C#N)c2)S(=O)(=O)N1 [Compound 32]
pEC50: 8.00 to 9.00

C=C[C@H](O)[C@H]1COc2c(cn(C)c2C(=O)Nc2ccc(F)c(C#N)c2)S(=O)(=O)N1 [Compound 14A]
pEC50: 8.00 to 9.00

C=CC1([C@H]2COc3c(cn(C)c3C(=O)Nc3ccc(F)c(C#N)c3)S(=O)(=O)N2)CCOCC1 [Compound 39A]
pEC50: 7.00 to 8.00

C#C[C@](C)(O)[C@H]1CCc2c(cn(C)c2C(=O)Nc2ccc(F)c(C#N)c2)S(=O)(=O)N1 [Compound 12A]
pEC50: 7.00 to 8.00
